Article PMC2724550, “Citrus auraptene suppresses cyclin D1 and significantly delays N-methyl nitrosourea induced mammary carcinogenesis in female Sprague-Dawley rats” (BMC Cancer, 2009)

How the values were obtained:
[1] = tested on: eukaryotic Initiation Factor 4E (eIF4E); assay: Western blot of eIF4E expression in rat mammary tumors; type: in vivo, female Sprague-Dawley rats; settings: dietary auraptene, data not shown
Experimental: The mammary tumors from the female Sprague-Dawley rats were analyzed for cyclin D1 expression and eukaryotic Initiation Factor 4E (eIF4E) as previously described. Briefly, samples were first homogenized in RIPA buffer [50 mM Tris-HCL (pH 7.4), 1% Triton-X, 150 mM NaCl, 1 mM EDTA, 1 mM sodium orthovanadate, 1 mM PMSF, 1 μg of aprotinin, leupeptin and pepstatin and 1 mM sodium fluoride]. The proteins were measured by Bradford method (using BSA as a standard), followed by the addition of 2 × sample buffer [0.125 M Tris, 10% (w/v) SDS, 40% (v/v) glycerol, 0.04% (w/v) bromophenol blue, and 80 mM dithiothreitol]. Samples were heated to 95°C for 5 min, and 10 μg of protein/well was loaded and resolved. The proteins were then transferred and detected for cyclin D1 expression as mentioned above. Lysate from MCF-7 cells treated with IGF-1 was used as positive control for cyclin D1.

[2] = Rat body weight and gross behavior in the tumor study; type: in vivo, female Sprague-Dawley rats
Source text: Rats (28 days of age) were divided up randomly into groups of 24–26 each and were handled daily to get them accustomed to human touch. At 42 days of age the rats were shifted to the test diet. Control group and MNU only group were fed with Teklad (powdered diet) only. MNU/Auraptene 200 ppm group and MNU/Auraptene 500 ppm group received 200 ppm and 500 ppm of auraptene respectively, mixed in the diet for the duration of the study. The doses were selected from the pilot study conducted with a small number of animals. In addition to the 200 ppm dose of auraptene, which indicated the chemopreventive effect of auraptene, a higher dose of auraptene at 500 ppm was added to this study to see any increased chemopreventive effects. Auraptene has been administered in diet at 100 ppm and 500 ppm in other models of cancer. The diet was prepared once a week and stored in cold room. The food was replaced on Monday, Wednesday and Friday or as needed. […] At 50 days of age all the groups except the control group received intraperitoneal MNU injection (50 mg/kg bw in sterile acidified saline). The control group received vehicle only. […] Any tumors felt during palpation were recorded by location. […]
The rat body weight data was compared between groups by One-Way ANOVA followed by Tukey test. […] The cell proliferation assays and western blot data were analyzed by One-Way ANOVA followed by Tukey test.

[3] = parameters: method as in PMID 18444171; settings: male Sprague-Dawley rats, cited from earlier work
[4] = 500 μmol/kg bw p.o. gavage, 1–4 h

**Q.** For `CC(C)=CCC/C(C)=C/COc1ccc2ccc(=O)oc2c1` [auraptene], which “eIF4E protein expression in rat mammary tumors” value [1] is on record?
**A.** Its value is “no significant change”.

**Q.** And the “effect on rat body weight” value ([2]; 200 and 500 ppm in diet, MNU treated groups)?
**A.** Its value is “did not significantly affect body weight”.

**Q.** What about the tolerability in rats ([2]; dietary auraptene up to 500 ppm, no observable change in gross behavior, no significant weight loss) of the same compound?
**A.** The tolerability in rats was “well tolerated”.

**Q.** And the “concentration in large intestine” value [3, 4]?
**A.** The value was no more than 20 nmol/g.

**Q.** And the “concentration in small intestine” value [3, 4]?
**A.** The value was no more than 100 nmol/g.

**Q.** What about the concentration in stomach [3, 4] of the same compound?
**A.** The concentration in stomach was ~ 2000 nmol/g.

**Q.** And the hepatic concentration ([3]; within 1–4 h of oral administration)?
**A.** Its hepatic concentration is ~ 25 μm.
